Results from paper PMC2248166, “Quantitative peptide binding motifs for 19 human and mouse MHC class I molecules derived using positional scanning combinatorial peptide libraries” (Immunome Research, 2008).

What was measured:
Format in all cases: binding
[1] = molecular target: HLA B*1503 (Homo sapiens, UniProt P01889, A329T/A93T/A95T/C349S/D201E/D98Y/E187L/E204Q/K202T/N87E/Q94N/R155S/R180L/S121R/S35A/V306I/V36M/Y140S/Y91S); experiment: biochemical
[2] = molecular target: HLA B*3501 (Homo sapiens, UniProt P01889, A329T/A93T/A95T/C349S/D201E/D98Y/E176V/E187L/E204Q/E69T/I218V/K202T/L119I/Q94N/R155S/R180L/S121R/S35A/S48A/T118I/V127L/V306I/V36M/Y140S/Y91F)
[3] = molecular target: HLA A*3201 (Homo sapiens, UniProt P04439, A270S/D101S/D185E/E176V/E277Q/F133L/G103R/G107R/G231S/H175R/I121M/I218V/I322F/K168Q/L105A/L300P/L318F/M331R/P208A/P217A/Q94H/R106L/R138Q/S129P/T104I/T323A/T345S/V100E/V321M/V358M); experiment: biochemical
[4] = molecular target: HLA B*5101 (Homo sapiens, UniProt P01889, A329T/A93T/A95T/C349S/D138N/D201E/D98Y/E187L/E204Q/E69T/G107R/I218V/K202T/L105A/L119W/N104I/Q94N/R106L/R155S/R180L/S101N/S121T/S35A/S48A/V306I/V36M/Y195H/Y91F)
[5] = molecular target: HLA B*5802 (Homo sapiens, UniProt P01889, A329T/C349S/D201E/D98Y/E176V/E187L/E204Q/E69T/G107R/I218V/I90N/K202T/L105A/N104I/N87E/Q89R/Q94S/R106L/R155S/R180L/R86G/S101N/S121W/S35A/S48A/V127L/V306I/V36M/Y140S/Y91M)
[6] = molecular target: H-2 D^d (Mus musculus, UniProt P01900)
[7] = molecular target: H-2 K^d (Mus musculus, UniProt P01902)
[8] = molecular target: H-2 D^b (Mus musculus, UniProt P01899)
[9] = molecular target: HLA A*6802 (Homo sapiens, UniProt P04439, A269V/D140Y/D185E/E176V/E277Q/E87N/F33Y/G231S/I121R/I166T/I218V/L180W/L300P/L318F/N151K/P208A/P217A/Q86R/R138H/R169H/S129P/T345S/V36M)
[10] = molecular target: HLA B*0801 (Homo sapiens, UniProt P01889, A93T/A95T/D138N/E176V/E187T/K202T/Q94N/R180D/S35A/V36M/Y33D/Y91F); experiment: biochemical
[11] = molecular target: HLA B*5401 (Homo sapiens, UniProt P01889, A329T/C349S/D138N/D201E/E176V/E187T/E204Q/E69G/I76V/K202T/L119W/R155S/R180L/S121T/S35A/S48A/V127L/V306I/V36M/Y140L)
[12] = molecular target: H-2 K^k (Mus musculus, UniProt P04223)
[13] = molecular target: HLA B*5801 (Homo sapiens, UniProt P01889, A329T/C349S/D201E/D98Y/E176V/E187L/E204Q/E69T/G107R/I218V/I90N/K202T/L105A/L119I/N104I/N87E/Q89R/Q94S/R106L/R155S/R180L/R86G/S101N/S121R/S35A/S48A/T118I/V127L/V306I/V36M/Y140S/Y91M)
[14] = molecular target: HLA B*1501 (Homo sapiens, UniProt P01889, A329T/A93T/A95T/C349S/D201E/D98Y/E187L/E204Q/E69M/E70A/K202T/N87E/Q94N/R155S/R180W/S121R/S35A/S48A/V306I/V36M/Y140S/Y91S); experiment: biochemical
[15] = molecular target: HLA B*5301 (Homo sapiens, UniProt P01889, A329T/A93T/A95T/C349S/D201E/D98Y/E176V/E187L/E204Q/E69T/G107R/I218V/K202T/L105A/L119I/N104I/Q94N/R106L/R155S/R180L/S101N/S121R/S35A/S48A/T118I/V127L/V306I/V36M/Y140S/Y91F)
[16] = molecular target: HLA A*3001 (Homo sapiens, UniProt P04439, D140H/D185E/E176W/F33S/G80R/H175R/K168Q/R138E/R41S); experiment: biochemical

H-2 D^d, sequence (P01900 whole entry, looked up): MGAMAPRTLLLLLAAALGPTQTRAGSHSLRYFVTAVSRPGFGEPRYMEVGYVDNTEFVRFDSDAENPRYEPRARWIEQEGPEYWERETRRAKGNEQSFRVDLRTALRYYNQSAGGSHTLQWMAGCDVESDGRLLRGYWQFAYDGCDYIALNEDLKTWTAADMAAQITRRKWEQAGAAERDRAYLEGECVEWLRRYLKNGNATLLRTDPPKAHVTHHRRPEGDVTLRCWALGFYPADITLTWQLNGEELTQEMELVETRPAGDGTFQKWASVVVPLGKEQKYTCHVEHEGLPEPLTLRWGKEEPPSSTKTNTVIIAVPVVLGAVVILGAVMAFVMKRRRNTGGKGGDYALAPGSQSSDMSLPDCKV
H-2 K^k, sequence (P01887 21-119): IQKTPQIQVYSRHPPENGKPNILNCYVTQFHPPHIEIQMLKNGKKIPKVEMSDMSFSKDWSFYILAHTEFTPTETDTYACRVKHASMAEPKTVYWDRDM
H-2 K^k, sequence (P04223 22-369): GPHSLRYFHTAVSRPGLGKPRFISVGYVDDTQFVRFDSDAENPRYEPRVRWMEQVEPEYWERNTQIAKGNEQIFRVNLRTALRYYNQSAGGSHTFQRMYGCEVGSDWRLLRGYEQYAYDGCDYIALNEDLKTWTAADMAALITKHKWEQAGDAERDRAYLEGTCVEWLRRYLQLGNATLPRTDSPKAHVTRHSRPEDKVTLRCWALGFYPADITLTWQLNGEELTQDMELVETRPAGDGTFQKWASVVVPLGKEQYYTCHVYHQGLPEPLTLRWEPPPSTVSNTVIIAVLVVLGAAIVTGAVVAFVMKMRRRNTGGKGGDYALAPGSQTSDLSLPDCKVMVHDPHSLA
H-2 D^b, sequence (P01887 21-119): as the sequence (P01887 21-119) above
H-2 D^b, sequence (P01899 25-362): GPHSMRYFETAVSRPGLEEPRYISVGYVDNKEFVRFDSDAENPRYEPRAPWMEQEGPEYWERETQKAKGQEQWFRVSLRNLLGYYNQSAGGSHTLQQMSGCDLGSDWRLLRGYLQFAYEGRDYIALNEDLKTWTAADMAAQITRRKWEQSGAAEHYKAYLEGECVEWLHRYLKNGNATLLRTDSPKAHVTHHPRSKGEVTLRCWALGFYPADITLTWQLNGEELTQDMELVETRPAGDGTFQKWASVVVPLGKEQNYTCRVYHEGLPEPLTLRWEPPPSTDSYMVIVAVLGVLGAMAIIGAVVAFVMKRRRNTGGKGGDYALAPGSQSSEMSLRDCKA
H-2 K^d, sequence (P01887 21-119): as the sequence (P01887 21-119) above
H-2 K^d, sequence (P01902 22-368): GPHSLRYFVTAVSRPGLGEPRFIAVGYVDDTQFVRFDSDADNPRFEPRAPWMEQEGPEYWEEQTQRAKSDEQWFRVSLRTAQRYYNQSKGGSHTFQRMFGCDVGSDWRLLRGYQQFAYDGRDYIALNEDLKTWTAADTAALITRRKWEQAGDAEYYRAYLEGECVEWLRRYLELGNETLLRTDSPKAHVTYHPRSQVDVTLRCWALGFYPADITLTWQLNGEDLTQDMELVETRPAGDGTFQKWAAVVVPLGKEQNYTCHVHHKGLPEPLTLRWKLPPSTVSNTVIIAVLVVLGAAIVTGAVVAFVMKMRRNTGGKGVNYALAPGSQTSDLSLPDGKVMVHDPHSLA

Sequence | Normalized average relative binding affinity(ARB) [1] | Normalized average relative binding affinity(ARB) [2] | Normalized average relative binding affinity(ARB) [3] | Normalized average relative binding affinity(ARB) [4] | Normalized average relative binding affinity(ARB) [5] | Normalized average relative binding affinity(ARB) [6] | Normalized average relative binding affinity(ARB) [7] | Normalized average relative binding affinity(ARB) [8] | Normalized average relative binding affinity(ARB) [9] | Normalized average relative binding affinity(ARB) [10] | Normalized average relative binding affinity(ARB) [11] | Normalized average relative binding affinity(ARB) [12] | Normalized average relative binding affinity(ARB) [13] | Normalized average relative binding affinity(ARB) [14] | Normalized average relative binding affinity(ARB) [15] | Normalized average relative binding affinity(ARB) [16]
XXXXXXXRX [3064.0155] | 0.11 | 0.072 | 0.26 | 0.36 | 0.37 | 0.46 | 0.49 | 0.068 | 0.13 | 0.30 | 0.059 | 0.10 | 0.13 | 0.15 | 0.46 | 0.35
XXXXXWXXX [3064.0119] | 0.37 | 0.99 | 0.26 | 0.10 | 0.29 | 0.77 | 0.29 | 1.0 | 0.44 | 0.046 | 0.18 | 0.49 | 0.21 | 0.36 | 0.36 | 0.14
XXXXXXXWX [3064.0159] | 0.13 | 0.047 | 0.089 | 0.20 | 0.16 | 0.27 | 0.26 | 0.13 | 0.16 | 0.11 | 0.051 | 0.18 | 0.84 | 0.035 | 0.099 | 0.16
XXXXXDXXX [3064.0103] | 0.19 | 0.13 | 0.16 | 0.064 | 0.15 | 0.29 | 0.066 | 0.29 | 0.69 | 0.0089 | 0.045 | 0.37 | 0.36 | 0.18 | 0.15 | 0.016
XXXXSXXXX [3064.0096] | 0.47 | 0.27 | 0.20 | 0.35 | 0.063 | 0.21 | 1.0 | 0.079 | 0.34 | 0.065 | 0.18 | 0.18 | 0.31 | 0.71 | 0.16 | 1.0
